From US20260000656A1, “ANTIFUNGAL AGENTS WITH ENHANCED ACTIVITY IN ACIDIC PH” (Scynexis, Inc., priority 2017, published 2026)
Where two headings read alike, the source gives them in different places. Blank lines part the entries; values can stand above or below the molecule they belong to.

What was measured:
[1] = test system: VVC; details: oral fluconazole, share of VVC cases, Diflucan label (May 2011); cited from earlier work
[2] = Plasma, vaginal secretion and vaginal tissue exposure after oral administration in mice; type: in vivo; details: for AUC(0-t): po
Experimental: Female CD-1 mice (n=3/time point/dose group) were given SCY-078 via oral gavage for either one, two, or eight total doses ranging from 10 to 80 mg/kg, consisting of QD (once per day) and BID (twice per day) dose regimens, with and without loading doses, as follows: • QD (Day 1): 10, 20, 40, 80 mg/kg • BID (Day 1): 10/5, 20/10, 40/20, 80/40 mg/kg • BID repeat dose (Days 1-4): 10/5, 20/10 40/20, 80/40 mg/kg on Day 1; 5, […] mg/kg BID on Days 2 to 4
Blood, vulvo-vaginal tissue and vaginal secretions were collected pre-dose, and at 1, 2, 4, 6, 8, 12, 18 and 24 hours post-dose, following the final dose administered per group. Samples were then processed, extracted via protein precipitation and analyzed for SCY-078 via LC MS/MS.

SMILES: OC(Cn1cncn1)(Cn1cncn1)c1ccc(F)cc1F [Fluconazole, reference compound]
- therapeutic cure (complete resolution of signs and symptoms, negative KOH examination and negative culture) [1]: approximately half

- AUC(0-t) ([2]; female, CD-1, mouse, plasma, 10 mg/kg, oral gavage, QD 10 mg/kg (Day 1), read-out: AUC0-24 Plasma): 8330 ng·h/mL
- AUC(0-t) ([2]; female, CD-1, mouse, plasma, 20 mg/kg, oral gavage, QD 20 mg/kg (Day 1), read-out: AUC0-24 Plasma): 19700 ng·h/mL
- AUC(0-t) ([2]; female, CD-1, mouse, plasma, 40 mg/kg, oral gavage, QD 40 mg/kg (Day 1), read-out: AUC0-24 Plasma): 42300 ng·h/mL
- AUC(0-t) ([2]; female, CD-1, mouse, plasma, 80 mg/kg, oral gavage, QD 80 mg/kg (Day 1), read-out: AUC0-24 Plasma): 75500 ng·h/mL
- AUC(0-t) ([2]; female, CD-1, mouse, plasma, BID regimen, 10/5-80/40 mg/kg, read-out: AUC0-24 in plasma, range over doses): 7470 to 101000 ng·h/mL
- AUC(0-t) ([2]; female, CD-1, mouse, plasma, BID repeat dose regimen (Days 1-4), read-out: AUC0-24 in plasma, range over doses): 7470 to 101000 ng·h/mL
- AUC(0-t) ([2]; female, CD-1, mouse, plasma, QD regimen, 10-80 mg/kg, read-out: AUC0-24 in plasma, range over doses): 8330 to 75500 ng·h/mL
- AUC(0-t) ([2]; female, CD-1, mouse, plasma, oral gavage, BID 10/5 mg/kg (Day 1), read-out: AUC0-24 Plasma): 7470 ng·h/mL
- AUC(0-t) ([2]; female, CD-1, mouse, plasma, oral gavage, BID 20/10 mg/kg (Day 1), read-out: AUC0-24 Plasma): 16600 ng·h/mL
- AUC(0-t) ([2]; female, CD-1, mouse, plasma, oral gavage, BID 40/20 mg/kg (Day 1), read-out: AUC0-24 Plasma): 46500 ng·h/mL
- AUC(0-t) ([2]; female, CD-1, mouse, plasma, oral gavage, BID 80/40 mg/kg (Day 1), read-out: AUC0-24 Plasma): 101000 ng·h/mL
- AUC(0-t) ([2]; female, CD-1, mouse, plasma, oral gavage, BID repeat-dose 10/5 mg/kg (Days 1-4), read-out: AUC0-24 Plasma): 5120 ng·h/mL
- AUC(0-t) ([2]; female, CD-1, mouse, plasma, oral gavage, BID repeat-dose 20/10 mg/kg (Days 1-4), read-out: AUC0-24 Plasma): 14600 ng·h/mL
- AUC(0-t) ([2]; female, CD-1, mouse, plasma, oral gavage, BID repeat-dose 40/20 mg/kg (Days 1-4), read-out: AUC0-24 Plasma): 53000 ng·h/mL
- AUC(0-t) ([2]; female, CD-1, mouse, plasma, oral gavage, BID repeat-dose 80/40 mg/kg (Days 1-4), read-out: AUC0-24 Plasma): 143000 ng·h/mL
- AUC(0-t) ([2]; female, CD-1, mouse, vaginal secretion, 10 mg/kg, oral gavage, QD 10 mg/kg (Day 1), read-out: AUC0-24 Vaginal Secretion): 1320 ng·h/mL
- AUC(0-t) ([2]; female, CD-1, mouse, vaginal secretion, 20 mg/kg, oral gavage, QD 20 mg/kg (Day 1), read-out: AUC0-24 Vaginal Secretion): 1870 ng·h/mL
- AUC(0-t) ([2]; female, CD-1, mouse, vaginal secretion, 40 mg/kg, oral gavage, QD 40 mg/kg (Day 1), read-out: AUC0-24 Vaginal Secretion): 4410 ng·h/mL
- AUC(0-t) ([2]; female, CD-1, mouse, vaginal secretion, 80 mg/kg, oral gavage, QD 80 mg/kg (Day 1), read-out: AUC0-24 Vaginal Secretion): 12300 ng·h/mL
- AUC(0-t) ([2]; female, CD-1, mouse, vaginal secretion, oral gavage, BID 10/5 mg/kg (Day 1), read-out: AUC0-24 Vaginal Secretion): 1550 ng·h/mL
- AUC(0-t) ([2]; female, CD-1, mouse, vaginal secretion, oral gavage, BID 20/10 mg/kg (Day 1), read-out: AUC0-24 Vaginal Secretion): 4210 ng·h/mL
- AUC(0-t) ([2]; female, CD-1, mouse, vaginal secretion, oral gavage, BID 40/20 mg/kg (Day 1), read-out: AUC0-24 Vaginal Secretion): 10600 ng·h/mL
- AUC(0-t) ([2]; female, CD-1, mouse, vaginal secretion, oral gavage, BID 80/40 mg/kg (Day 1), read-out: AUC0-24 Vaginal Secretion): 17800 ng·h/mL
- AUC(0-t) ([2]; female, CD-1, mouse, vaginal secretion, oral gavage, BID repeat-dose 10/5 mg/kg (Days 1-4), read-out: AUC0-24 Vaginal Secretion): 4320 ng·h/mL
- AUC(0-t) ([2]; female, CD-1, mouse, vaginal secretion, oral gavage, BID repeat-dose 20/10 mg/kg (Days 1-4), read-out: AUC0-24 Vaginal Secretion): 8630 ng·h/mL
- AUC(0-t) ([2]; female, CD-1, mouse, vaginal secretion, oral gavage, BID repeat-dose 40/20 mg/kg (Days 1-4), read-out: AUC0-24 Vaginal Secretion): 38800 ng·h/mL
- AUC(0-t) ([2]; female, CD-1, mouse, vaginal secretion, oral gavage, BID repeat-dose 80/40 mg/kg (Days 1-4), read-out: AUC0-24 Vaginal Secretion): 120000 ng·h/mL
- AUC(0-t) ([2]; female, CD-1, mouse, vaginal secretions, BID regimen, 10/5-80/40 mg/kg, read-out: AUC0-24 in vaginal secretions, range over doses): 1550 to 17800 ng·h/mL
- AUC(0-t) ([2]; female, CD-1, mouse, vaginal secretions, BID repeat dose regimen (Days 1-4), read-out: AUC0-24 in vaginal secretions, range over doses): 4320 to 120000 ng·h/mL
- AUC(0-t) ([2]; female, CD-1, mouse, vaginal secretions, QD regimen, 10-80 mg/kg, read-out: AUC0-24 in vaginal secretions, range over doses): 1320 to 12300 ng·h/mL
- Kp ([2]; female, CD-1, mouse, vaginal tissue, oral, repeat-dosing, read-out: accumulation in vaginal tissue relative to plasma): > 10
- AUC0-24 Vaginal Tissue ([2]; oral gavage, BID 10/5 mg/kg (Day 1)): 24.6 µg·h/g
- AUC0-24 Vaginal Tissue ([2]; oral gavage, BID 20/10 mg/kg (Day 1)): 72.9 µg·h/g
- AUC0-24 Vaginal Tissue ([2]; oral gavage, BID 40/20 mg/kg (Day 1)): 204 µg·h/g
- AUC0-24 Vaginal Tissue ([2]; oral gavage, BID 80/40 mg/kg (Day 1)): 337 µg·h/g
- AUC0-24 Vaginal Tissue ([2]; oral gavage, BID repeat-dose 10/5 mg/kg (Days 1-4)): 24.4 µg·h/g
- AUC0-24 Vaginal Tissue ([2]; oral gavage, BID repeat-dose 20/10 mg/kg (Days 1-4)): 71.6 µg·h/g
- AUC0-24 Vaginal Tissue ([2]; oral gavage, BID repeat-dose 40/20 mg/kg (Days 1-4)): 275 µg·h/g
- AUC0-24 Vaginal Tissue ([2]; oral gavage, BID repeat-dose 80/40 mg/kg (Days 1-4)): 1798 µg·h/g
- AUC0-24 Vaginal Tissue ([2]; oral gavage, QD 10 mg/kg (Day 1)): 26.7 µg·h/g
- AUC0-24 Vaginal Tissue ([2]; oral gavage, QD 20 mg/kg (Day 1)): 53.6 µg·h/g
- AUC0-24 Vaginal Tissue ([2]; oral gavage, QD 40 mg/kg (Day 1)): 187 µg·h/g
- AUC0-24 Vaginal Tissue ([2]; oral gavage, QD 80 mg/kg (Day 1)): 171 µg·h/g
SMILES: CC(C)[C@@H](C)[C@@]1(C)CC[C@]2(C)[C@H]3CC[C@@H]4[C@@]5(COC[C@]4(C)[C@@H](OC[C@](C)(N)C(C)(C)C)[C@H](n4ncnc4-c4ccncc4)C5)C3=CC[C@@]2(C)[C@@H]1C(=O)O [SCY-078]
